Test results from PubChem BioAssay AID308 (DTP/NCI, 2004).
“And” between values parts separate entries of the source, which are not always exact repeats. Equal entries are not always repeated. Toxic doses and inconclusive results are not listed.

System: BDF1 mice, L1210 6-MP/6-TG resistant leukemia ip, survival T/C
Assay: NCI In Vivo Anticancer Drug Screen. Data for tumor model L1210 Leukemia resistant to 6-MP and 6-Thioguanine; NSC 755, NSC 752 (intraperitoneal) in B6D2F1 (BDF1) mice
Conditions: endpoint: mean survival time, higher = longer survival
Procedure: The antitumor activity of compounds was measured in mice bearing transplantable tumors. Survival or tumor size were measured and the results are expressed as the measurement made in the treated group (T) divided by the measurement made in the vehicle treated control group (C). The tumor model used in this assay is L1210 Leukemia resistant to 6-MP and 6-Thioguanine; NSC 755, NSC 752 (intraperitoneal) in B6D2F1 (BDF1) mice

For `CN(Cc1cnc2nc(N)nc(N)c2n1)c1c(Cl)cc(C(=O)NC(CCC(=O)O)C(=O)O)cc1Cl` (centres undefined), the T/C (dose: 0.31 mg/kg/injection, schedule: Q01DX015 (ip), vehicle: carboxymethylcellulose (CMC)) was 154 % of control, the T/C (dose: 0.62 mg/kg/injection, schedule: Q01DX015 (ip), vehicle: carboxymethylcellulose (CMC)) was 238 % of control and the T/C (dose: 1.25 mg/kg/injection, schedule: Q01DX015 (ip), vehicle: carboxymethylcellulose (CMC)) was 307 % of control. For the same molecule, the T/C (dose: 2.5 mg/kg/injection, schedule: Q01DX015 (ip), vehicle: carboxymethylcellulose (CMC)) was 175 % of control and 320 % of control, the T/C (dose: 5.0 mg/kg/injection, schedule: Q01DX015 (ip), vehicle: carboxymethylcellulose (CMC)) was 219 % of control and 330 % of control and the T/C (dose: 9.0 mg/kg/injection, schedule: Q02DX010 (ip), vehicle: carboxymethylcellulose (CMC)) was 348 % of control. The T/C (dose: 10.0 mg/kg/injection, schedule: Q01DX015 (ip), vehicle: carboxymethylcellulose (CMC)) was 162 % of control, the T/C (dose: 13.0 mg/kg/injection, schedule: Q01DX015 (ip), vehicle: carboxymethylcellulose (CMC)) was 293 % of control and the T/C (dose: 13.0 mg/kg/injection, schedule: Q02DX010 (ip), vehicle: carboxymethylcellulose (CMC)) was 348 % of control. For the same molecule, the T/C (dose: 20.0 mg/kg/injection, schedule: Q01DX015 (ip), vehicle: carboxymethylcellulose (CMC)) was 262 % of control, the T/C (dose: 20.0 mg/kg/injection, schedule: Q02DX010 (ip), vehicle: carboxymethylcellulose (CMC)) was 308 % of control and the T/C (dose: 30.0 mg/kg/injection, schedule: Q01DX015 (ip), vehicle: carboxymethylcellulose (CMC)) was 168 % of control and 181 % of control. The T/C (dose: 30.0 mg/kg/injection, schedule: Q02DX010 (ip), vehicle: carboxymethylcellulose (CMC)) was 310 % of control, the T/C (dose: 45.0 mg/kg/injection, schedule: Q01DX015 (ip), vehicle: carboxymethylcellulose (CMC)) was 269 % of control and the T/C (dose: 45.0 mg/kg/injection, schedule: Q02DX010 (ip), vehicle: carboxymethylcellulose (CMC)) was 343 % of control. The T/C (dose: 67.0 mg/kg/injection, schedule: Q02DX010 (ip), vehicle: carboxymethylcellulose (CMC)) was 348 % of control, the T/C (dose: 67.5 mg/kg/injection, schedule: Q01DX015 (ip), vehicle: carboxymethylcellulose (CMC)) was 205 % of control and the T/C (dose: 80.0 mg/kg/injection, schedule: Q01DX015 (ip), vehicle: carboxymethylcellulose (CMC)) was 116 % of control. For the same molecule, the T/C (dose: 80.0 mg/kg/injection, schedule: Q01DX015 (ip), vehicle: saline) was 194 % of control, the T/C (dose: 100.0 mg/kg/injection, schedule: Q01DX015 (ip), vehicle: carboxymethylcellulose (CMC)) was 121 % of control and the T/C (dose: 100.0 mg/kg/injection, schedule: Q01DX015 (ip), vehicle: saline) was 233 % of control. For the same molecule, the T/C (dose: 120.0 mg/kg/injection, schedule: Q01DX015 (ip), vehicle: carboxymethylcellulose (CMC)) was 104 % of control, the T/C (dose: 120.0 mg/kg/injection, schedule: Q01DX015 (ip), vehicle: saline) was 112 % of control and the T/C (dose: 75.0 micrograms/kg/injection, schedule: Q01DX015 (ip), vehicle: carboxymethylcellulose (CMC)) was 307 % of control. For the same molecule, the T/C (dose: 150.0 micrograms/kg/injection, schedule: Q01DX015 (ip), vehicle: carboxymethylcellulose (CMC)) was 300 % of control, the T/C (dose: 310.0 micrograms/kg/injection, schedule: Q01DX015 (ip), vehicle: carboxymethylcellulose (CMC)) was 293 % of control and the T/C (dose: 620.0 micrograms/kg/injection, schedule: Q01DX015 (ip), vehicle: carboxymethylcellulose (CMC)) was 313 % of control.

For `O=CCC(O)C(O)C(O)CO` (centres undefined), the T/C (dose: 375.0 mg/kg/injection, schedule: Q01DX Z (ip), vehicle: saline) was 113 % of control, the T/C (dose: 500.0 mg/kg/injection, schedule: Q01DX Z (ip), vehicle: saline) was 113 % of control and the T/C (dose: 750.0 mg/kg/injection, schedule: Q01DX Z (ip), vehicle: saline) was 116 % of control. For the same molecule, the T/C (dose: 1000.0 mg/kg/injection, schedule: Q01DX Z (ip), vehicle: saline) was 123 % of control.

`C[C@@H]1C[C@H]2CC[C@H](O2)[C@H](C)C(=O)O[C@@H](C)C[C@@H]2CC[C@@H](O2)[C@@H](C)C(=O)O[C@H](C)C[C@H]2CC[C@H](O2)[C@H](C)C(=O)O[C@@H](C)C[C@@H]2CC[C@@H](O2)[C@@H](C)C(=O)O1` was tested, and the T/C (dose: 10.0 mg/kg/injection, schedule: Q01DX Z (ip), vehicle: other) was 101 % of control, the T/C (dose: 15.0 mg/kg/injection, schedule: Q01DX Z (ip), vehicle: other) was 101 % of control and the T/C (dose: 20.0 mg/kg/injection, schedule: Q01DX Z (ip), vehicle: other) was 104 % of control. The T/C (dose: 30.0 mg/kg/injection, schedule: Q01DX Z (ip), vehicle: other) was 94 % of control, the T/C (dose: 45.0 mg/kg/injection, schedule: Q01DX Z (ip), vehicle: carboxymethylcellulose (CMC)) was 100 % of control and the T/C (dose: 90.0 mg/kg/injection, schedule: Q01DX Z (ip), vehicle: carboxymethylcellulose (CMC)) was 93 % of control. For the same molecule, the T/C (dose: 180.0 mg/kg/injection, schedule: Q01DX Z (ip), vehicle: carboxymethylcellulose (CMC)) was 96 % of control and the T/C (dose: 360.0 mg/kg/injection, schedule: Q01DX Z (ip), vehicle: carboxymethylcellulose (CMC)) was 95 % of control.

For `CC(C)Cn1cnc2c(Sc3c([N+](=O)[O-])ncn3C)nc(N)nc21`, the T/C (dose: 1.0 mg/kg/injection, schedule: Q01DX015 (ip), vehicle: other) was 94 % of control, the T/C (dose: 2.0 mg/kg/injection, schedule: Q01DX015 (ip), vehicle: other) was 92 % of control and the T/C (dose: 8.0 mg/kg/injection, schedule: Q01DX015 (ip), vehicle: other) was 95 % of control. The T/C (dose: 12.5 mg/kg/injection, schedule: Q01DX015 (ip), vehicle: other) was 100 % of control, the T/C (dose: 25.0 mg/kg/injection, schedule: Q01DX015 (ip), vehicle: other) was 97 % of control and the T/C (dose: 50.0 mg/kg/injection, schedule: Q01DX015 (ip), vehicle: other) was 90 % of control.

In the case of `CC(CCC(C)OS(C)(=O)=O)OS(C)(=O)=O` (centres undefined), the T/C (dose: 25.0 mg/kg/injection, schedule: Q01DX Z (ip), vehicle: carboxymethylcellulose (CMC)) is reported as 112 % of control, the T/C (dose: 37.5 mg/kg/injection, schedule: Q01DX Z (ip), vehicle: carboxymethylcellulose (CMC)) is reported as 116 % of control and the T/C (dose: 50.0 mg/kg/injection, schedule: Q01DX Z (ip), vehicle: carboxymethylcellulose (CMC)) is reported as 118 % of control. The T/C (dose: 75.0 mg/kg/injection, schedule: Q01DX Z (ip), vehicle: carboxymethylcellulose (CMC)) was 98 % of control.
